Laboratory results published in article PMC11619978 (Heliyon, 2024).
Entries after “also recorded” stand apart in the source; their conditions may differ.

Legend:
[1] = target: T1, human pancreatic α-amylase (Homo sapiens, UniProt P04746); experiment: α-amylase inhibition assay; format: biochemical
T1 sequence (P04746 16-511): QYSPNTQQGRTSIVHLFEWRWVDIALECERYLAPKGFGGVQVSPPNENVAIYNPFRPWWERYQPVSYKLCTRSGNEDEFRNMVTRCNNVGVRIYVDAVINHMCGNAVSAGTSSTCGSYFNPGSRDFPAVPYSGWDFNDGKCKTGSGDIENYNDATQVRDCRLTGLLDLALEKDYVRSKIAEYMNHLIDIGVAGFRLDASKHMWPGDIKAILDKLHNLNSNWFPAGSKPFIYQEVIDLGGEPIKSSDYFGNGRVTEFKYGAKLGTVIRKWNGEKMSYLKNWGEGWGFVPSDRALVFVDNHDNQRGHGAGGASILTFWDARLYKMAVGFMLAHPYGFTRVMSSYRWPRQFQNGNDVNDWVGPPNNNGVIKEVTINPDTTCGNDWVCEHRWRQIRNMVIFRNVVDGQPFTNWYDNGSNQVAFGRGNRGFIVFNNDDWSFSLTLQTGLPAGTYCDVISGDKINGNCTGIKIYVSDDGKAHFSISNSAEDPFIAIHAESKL

[2] = target: human lysosomal acid-α-glucosidase (Homo sapiens, UniProt P10253); experiment: α-glucosidase inhibition assay; format: biochemical
α-amylase = target: T2, α-amylase (Homo sapiens, UniProt P04746); experiment: enzymatic kinetic study on α-amylase; format: biochemical; conditions: for mode of α-amylase inhibition: Lineweaver-Burk plot
T2 sequence (P04746 16-511): T1 sequence (P04746 16-511)

α-glucosidase = α-glucosidase (Homo sapiens, UniProt P10253); experiment: enzymatic kinetic study on α-glucosidase; format: biochemical; conditions: for mode of α-glucosidase inhibition: Lineweaver-Burk plot
female mice = experiment: acute oral toxicity; format: in vivo; conditions: three female mice

IC50 [1] [µM] | IC50 [2] [µM] | SMILES | further results
151 ± 7.4 | 263 ± 12.2 | CC(C)[C@@H]1CC[C@@H](C)C[C@@]12N(C)C(=O)[C@@H]1C[C@@H](Cc3cccc(/C=N/NC(=O)Nc4ccccc4)c3O)ON12 [5a] | –
198 ± 9.5 | 286 ± 13.5 | CC(C)[C@@H]1CC[C@@H](C)C[C@@]12N(C)C(=O)[C@@H]1C[C@@H](Cc3cccc(/C=N/NC(=S)Nc4ccccc4)c3O)ON12 [5b] | –
73.1 ± 3.31 | 203 ± 10 | CCNC(=S)N/N=C/c1cccc(C[C@@H]2C[C@H]3C(=O)N(C)[C@@]4(C[C@H](C)CC[C@H]4C(C)C)N3O2)c1O [5c] | –
58.8 ± 2.22 | 98.6 ± 4.35 | CC(C)[C@@H]1CC[C@@H](C)C[C@@]12N(C)C(=O)[C@@H]1C[C@@H](Cc3cccc(/C=N/NC(=S)N(C)C)c3O)ON12 [5d] | –
33.9 ± 1.09 | 49.3 ± 2.19 | CC(C)[C@@H]1CC[C@@H](C)C[C@@]12N(C)C(=O)[C@@H]1C[C@@H](Cc3cccc(/C=N/NC(N)=S)c3O)ON12 [5e] | –
64.2 ± 3.15 | 158 ± 7.09 | CNC(=S)N/N=C/c1cccc(C[C@@H]2C[C@H]3C(=O)N(C)[C@@]4(C[C@H](C)CC[C@H]4C(C)C)N3O2)c1O [5g] | –
– | – | C[C@H]1O[C@H](O[C@H]2[C@H](O)[C@@H](O)[C@@H](O[C@H]3[C@H](O)[C@@H](O)C(O)O[C@@H]3CO)O[C@@H]2CO)[C@H](O)[C@@H](O)[C@@H]1N[C@H]1C=C(CO)[C@@H](O)[C@H](O)[C@H]1O (stereo partly drawn) [Acarbose, reference compound] | mode of α-amylase inhibition (α-amylase): competitive; mode of α-glucosidase inhibition (α-glucosidase): competitive; also recorded: compete with the substrate for binding to the active site

SMILES | IC50 [1] [µM] | IC50 [2] [µM] | further results
CC(C)[C@@H]1CC[C@@H](C)C[C@@]12N(C)C(=O)[C@@H]1C[C@@H](Cc3cccc(/C=N/NC(N)=O)c3O)ON12 [5f] | 26.7 ± 1.25 | 39.1 ± 1.83 | fold improvement over acarbose, α-amylase ([1]; versus acarbose IC50): about 11 fold; Ki (α-amylase): 24.9 µM; mode of α-amylase inhibition (α-amylase): competitive inhibition; Ki (α-glucosidase): 37 µM; mode of α-glucosidase inhibition (α-glucosidase): competitive; also recorded: compete with the substrate for binding to the active site; fold improvement over acarbose, α-glucosidase ([2]; versus acarbose IC50): ~20 fold; survival at 1600 mg/kg b.w. (female mice; 1600 mg/kg b.w.): only one mouse was survived; dose with no toxicity (no significant adverse effects or mortality) (female mice): up to 1000 mg/kg b.w.
